Molecules are shown by their SMILES.

For the assay, the target named is SARS-CoV-2 3CL-protease (Severe acute respiratory syndrome coronavirus 2, UniProt P0DTD1). Briefly: SARS-CoV-2 3C-Like (3CL) Protease Fluorescence Assay (FRET). The settings on record: SARS-CoV-2 3CL-protease 10 nM, 30 min preincubation at RT, substrate 40 μM. It counts as biochemical.
For orientation: IC50 means the concentration that gives 50% inhibition. Take `[2H]C([2H])([2H])N(C(=O)c1cc(OC(F)(F)F)c2ncccc2c1)[C@@H](CC(C)(C)C)C(=O)N1C[C@]2(C[C@H]1C#N)C(=O)Nc1ccccc12` [Example 382]: the 50% inhibitory concentration (IC50) is < 100 nM.
The compound `CC(C)C[C@@H](C(=O)N1C[C@]2(C[C@H]1C#N)C(=O)Nc1ccccc12)N(C)C(=O)[C@H]1CCN(C(=O)OC(C)(C)C)C1` [Example 344] gave a half-inhibitory concentration (IC50) of 100 to 1000 nM.
The same measure for `CC(C)C[C@@H](C(=O)N1C[C@]2(C[C@H]1C#N)C(=O)Nc1ccccc12)N(C)C(=O)[C@H](c1cn(C)nn1)C(C)C` [Example 351]: < 100 nM.
The figure for `COc1ccccc1CN(C(=O)C(F)(F)F)[C@@H](CC(C)C)C(=O)N1C[C@]2(C[C@H]1C#N)C(=O)Nc1ccccc12` [Example 431] is > 1000 nM; for `CC(C)C[C@@H](C(=O)N1C[C@]2(C[C@H]1C#N)C(=O)Nc1ccccc12)N(C)C(=O)c1ccc2ccncc2c1` [Example 217] it is 100 to 1000 nM.
The figure for `CC(C)C[C@@H](C(=O)N1C[C@]2(C[C@H]1C#N)C(=O)Nc1ccccc12)N(C)C(=O)c1ccc(F)c(C(F)(F)F)c1` [Example 177] is < 100 nM; for `Cc1ccnc2[nH]c(C(=O)N(C)[C@@H](CC3CC3)C(=O)N3C[C@]4(C[C@H]3C#N)C(=O)Nc3ccc(Cl)cc34)cc12` [Example 460] it is < 100 nM.
With `CC(C)C[C@@H](C(=O)N1C[C@]2(C[C@H]1C#N)C(=O)Nc1ccccc12)N(C)C(=O)c1cccc(-c2cccc(Cl)c2)c1` [Example 266], the IC50 lay in the range of 100 to 1000 nM.
The figure for `[2H]C([2H])([2H])N(C(=O)C1(c2ccncc2)CC1)[C@@H](CC(C)(C)F)C(=O)N1C[C@]2(C[C@H]1C#N)C(=O)Nc1ccc(Cl)cc12` [Example 475] is < 100 nM.
The same measure for `C[C@@H](CC(=O)N[C@@H](CC(C)(C)C)C(=O)N1C[C@]2(C[C@H]1C#N)C(=O)Nc1ccccc12)NC(=O)OCc1ccccc1` [Example 130]: 100 to 1000 nM; for `CC(C)C[C@@H](C(=O)N1C[C@]2(C[C@H]1C#N)C(=O)Nc1ccccc12)N(C)C(=O)C#Cc1ccccc1` [Example 248]: 100 to 1000 nM; for `CC(C)C[C@@H](C(=O)N1C[C@]2(C[C@H]1C#N)C(=O)Nc1ccccc12)N(C)C(=O)c1cnccn1` [Example 200]: < 100 nM.
The figure for `CC(C)C[C@@H](C(=O)N1C[C@]2(C[C@H]1C#N)C(=O)Nc1ccccc12)N(C)C(=O)c1cc(OC2CC2)n2nc(C3CC3)c(C(=O)C(F)(F)F)c2c1` [Example 313] is 100 to 1000 nM; for `C=C(C)c1ccc2c(c1)[C@@]1(C[C@@H](C#N)N(C(=O)[C@H](CC(C)C)N(C)C(=O)c3cc4c(F)cc(F)cc4[nH]3)C1)C(=O)N2` [Example 498, N—((S)-1-((3R,5′S)-5′-cyano-2-oxo-5-(prop-1-en-2-yl)spiro[indoline-3,3′-pyrrolidin]-1′-yl)-4-methyl-1-oxopentan-2-yl)-4,6-difluoro-N-methyl-1H-indole-2-carboxamide] it is < 100 nM.
The compound `CC(C)C[C@@H](C(=O)N1C[C@]2(C[C@H]1C#N)C(=O)Nc1ccccc12)N(C)C(=O)c1ccc2nccnc2c1` [Example 297] yielded an IC50 of 100 to 1000 nM.
The figure for `CN(C(=O)CCNc1nccs1)[C@@H](CC(C)(C)F)C(=O)N1C[C@]2(C[C@H]1C#N)C(=O)Nc1ccccc12` [Example 547] is < 100 nM; for `CN(C(=O)c1cc2c(F)cc(F)c(F)c2[nH]1)[C@@H](CC(C)(C)O)C(=O)N1C[C@]2(C[C@H]1C#N)C(=O)Nc1ccccc12` [Example 444] it is 100 to 1000 nM; for `CN(C(=O)C(F)(F)c1ccccn1)[C@@H](CC(C)(C)F)C(=O)N1C[C@]2(C[C@H]1C#N)C(=O)Nc1ccc(Cl)cc12` [Example 481] it is < 100 nM.
The same measure for `CC(C)C[C@@H](C(=O)N1C[C@]2(C[C@H]1C#N)C(=O)Nc1ccccc12)N(C)C(=O)[C@@H]1CCN(C(=O)OC(C)(C)C)C1` [Example 345]: < 100 nM; for `CC(C)C[C@@H](C(=O)N1C[C@]2(C[C@H]1C#N)C(=O)Nc1ccccc12)N(C)C(=O)c1ccccc1Cl` [Example 162]: < 100 nM; for `CC(C)C[C@@H](C(=O)N1C[C@]2(C[C@H]1C#N)C(=O)Nc1ccc(C#C[Si](C)(C)C)cc12)N(C)C(=O)c1cc2c(F)cc(F)cc2[nH]1` [Example 509]: < 100 nM.
The figure for `CC(C)C[C@@H](C(=O)N1C[C@]2(C[C@H]1C#N)C(=O)Nc1ccccc12)N(C)C(=O)c1cc2ccc(Cl)c(Cl)c2[nH]1` [Example 334] is < 100 nM; for `CC(C)(C)C[C@H](NC(=O)c1cn(C2CC2)nn1)C(=O)N1C[C@]2(C[C@H]1C#N)C(=O)Nc1ccccc12` [Example 141] it is < 100 nM.
For `Cc1cccc2[nH]c(C(=O)N(C)[C@@H](CC(C)C)C(=O)N3C[C@]4(C[C@H]3C#N)C(=O)Nc3ccccc34)nc12` [Example 252], the IC50 was < 100 nM.
The same measure for `CC(C)C[C@@H](C(=O)N1C[C@]2(C[C@H]1C(=O)CO)C(=O)Nc1ccccc12)N(C)C(=O)c1cc2c(F)cc(F)cc2[nH]1` [Example 157]: > 1000 nM; for `CC(C)C[C@@H](C(=O)N1C[C@]2(C[C@H]1C#N)C(=O)Nc1ccccc12)N(C)C(=O)c1cnn(-c2ccccc2C(F)(F)F)c1` [Example 353]: < 100 nM; for `CN(C(=O)c1cc2cccnc2[nH]1)[C@@H](CC(C)(C)F)C(=O)N1C[C@]2(C[C@H]1C#N)C(=O)Nc1ccccc12` [Example 466]: < 100 nM.
In turn, `N#C[C@@H]1C[C@@]2(CN1C(=O)[C@H](CN1CCCC1=O)NC(=O)OCc1ccccc1)C(=O)Nc1ccccc12` [Example 548, benzyl ((S)-1-((3R,5′S)-5′-cyano-2-oxospiro[indoline-3,3′-pyrrolidin]-1′-yl)-1-oxo-3-(2-oxopyrrolidin-1-yl)propan-2-yl)carbamate] gave a concentration for half-maximal inhibition (IC50) of 100 to 1000 nM.
The figure for `CC(C)C[C@@H](C(=O)N1C[C@]2(C[C@H]1C#N)C(=O)Nc1ccccc12)N(C)C(=O)c1cc2cc(F)c(F)c(F)c2[nH]1` [Example 333] is < 100 nM; for `CC(C)C[C@@H](C(=O)N1C[C@]2(C[C@H]1C#N)C(=O)Nc1ccccc12)N(C)C(=O)c1nc2cc(F)ccc2[nH]1` [Example 250] it is < 100 nM; for `CC(C)C[C@@H](C(=O)N1C[C@]2(C[C@H]1C#N)C(=O)Nc1ccccc12)N(C)C(=O)NCc1ccccc1` [Example 433] it is < 100 nM.
The same measure for `CC(C)C[C@@H](C(=O)N1C[C@]2(C[C@H]1C#N)C(=O)Nc1ccccc12)N(C)C(=O)CCNC(=O)OC(C)(C)C` [Example 366]: < 100 nM.
The same measure for `CC(C)C[C@@H](C(=O)N1C[C@]2(C[C@H]1C#N)C(=O)Nc1ccc(-c3cccnc3)cc12)N(C)C(=O)c1cc2c(F)cc(F)cc2[nH]1` [Example 506]: < 100 nM; for `CN(C(=O)C1(c2ccccn2)CC1)[C@@H](CC(C)(C)F)C(=O)N1C[C@]2(C[C@H]1C#N)C(=O)Nc1ccc(Cl)cc12` [Example 478]: < 100 nM; for `CC[C@@H](C(=O)N1C[C@]2(C[C@H]1C#N)C(=O)Nc1ccccc12)N(C)C(=O)c1cc2c(F)cc(F)cc2[nH]1` [Example 385]: 100 to 1000 nM.
As for `N#C[C@@H]1C[C@@]2(CN1C(=O)[C@H](CC1CC1)NC(=O)OCc1ccc(F)cc1F)C(=O)Nc1ccc(Cl)cc12` [Example 493], the IC50 was < 100 nM.
The same measure for `CN(C(=O)[C@H](O)c1ccccc1Cl)[C@@H](CC1CC1)C(=O)N1C[C@]2(C[C@H]1C#N)C(=O)Nc1ccccc12` [Example 426]: < 100 nM.
The figure for `CC(C)C[C@@H](C(=O)N1C[C@]2(C[C@H]1C#N)C(=O)Nc1ccccc12)N(C)C(=O)c1cn(-c2ccccn2)nn1` [Example 267] is < 100 nM.
Regarding `CN(C(=O)CCCN1CCOCC1)[C@@H](CC(C)(C)F)C(=O)N1C[C@]2(C[C@H]1C#N)C(=O)Nc1ccccc12` [Example 538], the IC50 is > 1000 nM.
The figure for `N#C[C@@H]1C[C@@]2(CN1C(=O)[C@H](COCc1cnn[nH]1)NC(=O)c1cc3c(F)cc(F)cc3[nH]1)C(=O)Nc1ccccc12` [Example 129] is > 1000 nM.
The same measure for `[2H]C([2H])([2H])N(C(=O)c1cnn2cc(Cl)ccc12)[C@@H](CCCC)C(=O)N1C[C@]2(C[C@H]1C#N)C(=O)Nc1ccccc12` [Example 398]: < 100 nM; for `CC(C)C[C@@H](C(=O)N1C[C@]2(C[C@H]1C#N)C(=O)Nc1ccccc12)N(C)C(=O)C1(c2ccc3c(c2)OC(F)(F)O3)CC1` [Example 329]: < 100 nM.
The same measure for `CC(C)C[C@@H](C(=O)N1C[C@]2(C[C@H]1C#N)C(=O)Nc1ccccc12)N(C)C(=O)c1cccc2cnccc12` [Example 215]: < 100 nM.
For the compound `CC(C)C[C@@H](C(=O)N1C[C@]2(C[C@H]1C#N)C(=O)Nc1ccccc12)N(C)C(=O)c1ccc2ncc(F)cc2c1` [Example 235], the IC50 was < 100 nM.
The figure for `COC(=O)c1ccc2c(c1)[C@@]1(C[C@@H](C#N)N(C(=O)[C@H](CC(C)C)N(C)C(=O)c3cc4c(F)cc(F)cc4[nH]3)C1)C(=O)N2` [Example 501, methyl (3R,5′S)-5′-cyano-1′-(N-(4,6-difluoro-1H-indole-2-carbonyl)-N-methyl-L-leucyl)-2-oxospiro[indoline-3,3′-pyrrolidine]-5-carboxylate] is < 100 nM; for `CC(C)C[C@@H](C(=O)N1C[C@]2(C[C@H]1C#N)C(=O)Nc1ccccc12)N(C)C(=O)c1ccc2c(c1)OC(F)(F)O2` [Example 190] it is 100 to 1000 nM.
The figure for `CC(C)C[C@@H](C(=O)N1C[C@]2(C[C@H]1C#N)C(=O)Nc1ccc(C(=O)N3CCOCC3)cc12)N(C)C(=O)c1cc2c(F)cc(F)cc2[nH]1` [Example 502, N—((S)-1-((3R,5′S)-5′-cyano-5-(morpholine-4-carbonyl)-2-oxospiro[indoline-3,3′-pyrrolidin]-1′-yl)-4-methyl-1-oxopentan-2-yl)-4,6-difluoro-N-methyl-1H-indole-2-carboxamide] is < 100 nM; for `[2H]C([2H])([2H])N(C(=O)c1ccc2ncc(C(F)(F)F)cc2c1)[C@@H](CC(C)(C)C)C(=O)N1C[C@]2(C[C@H]1C#N)C(=O)Nc1ccccc12` [Example 381] it is < 100 nM.
The figure for `N#C[C@@H]1C[C@@]2(CN1C(=O)[C@H](CC1CC1)NC(=O)c1cc3c(F)cc(F)cc3[nH]1)C(=O)Nc1ccc(Cl)cc12` [Example 453] is < 100 nM.

The record behind these values is patent publication US12540141B2, “Spiropyrrolidine derived antiviral agents” (priority 2020, dated 2026).
